Test results published in patent publication US10428054B2, “Kynurenine-3-monooxygenase inhibitors, pharmaceutical compositions, and methods of use thereof” (CHDI Foundation, Inc., priority 2013, dated 2019).
Read-outs that look alike come from different tables or passages of the source.

Target: T1, KMO mouse enzyme (Mus musculus, UniProt Q91WN4)
T1 construct: KMO enzyme prepared at Evotec from mouse liver (4-6 weeks old) via mitochondria isolation; from tissue; host or cells: mouse liver (4-6 weeks old), mitochondria isolation, prepared at Evotec
T1 sequence (Q91WN4 whole entry): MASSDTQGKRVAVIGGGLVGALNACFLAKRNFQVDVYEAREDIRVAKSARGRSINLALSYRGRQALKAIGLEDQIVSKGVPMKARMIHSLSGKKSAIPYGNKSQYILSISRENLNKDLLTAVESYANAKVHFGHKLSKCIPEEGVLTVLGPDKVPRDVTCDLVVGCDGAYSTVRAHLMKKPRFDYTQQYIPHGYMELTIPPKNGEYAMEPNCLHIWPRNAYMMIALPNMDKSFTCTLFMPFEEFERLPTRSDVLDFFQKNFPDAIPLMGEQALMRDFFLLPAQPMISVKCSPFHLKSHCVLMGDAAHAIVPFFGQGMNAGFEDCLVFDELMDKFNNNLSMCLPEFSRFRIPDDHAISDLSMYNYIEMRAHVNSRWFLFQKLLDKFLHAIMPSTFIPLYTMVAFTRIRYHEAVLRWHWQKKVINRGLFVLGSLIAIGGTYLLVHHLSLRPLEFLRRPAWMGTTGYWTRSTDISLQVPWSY
Assay: KMO enzyme assay: L-Kynurenine hydroxylation to 3-Hydroxy-Kynurenine by LC/MS (protocols substantially similar to Biology Example 3)
Type: biochemical
Settings: for inhibition at 10 µM: compound at 10 uM (stated in cell; head says 30 μM)
Experimental: A method of monitoring L-Kynurenine (KYN) hydroxylation to form 3-Hydroxy-Kynurenine (30H-KYN) by LC/MS is described. Product is quantified by multiple reaction monitoring (MRM method).
• Compound: Stock concentrations: 10 mM in 100% DMSO • Enzyme: KMO enzyme prepared at Evotec from mouse liver (4-6 weeks old) via mitochondria isolation as described in the literature • Substrate: L-Kynurenine (Sigma: Cat# K3750, stock concentration: 10 mM in 100 mM potassium phosphate buffer, pH 7.4) Assay Conditions: • Buffer: 100 mM potassium phosphate, pH 7.4, 200 μM NADPH, 0.4 U/ml G6P-DH (Glucose 6-phosphate Dehydrogenase), 3 mM G6P (D-Glucose 6-phosphate) • Assay Volume: 40 μl • Plate Format: 384 well plate, transparent (Matrix) • Read-Out: product (30H-KYN) quantification using product specific MRM • Reader: LC/MS/MS Assay Protocol: • prepare serial dilution (factor 3) of compound in 100% DMSO (top concentration=10 mM, 100% DMSO) • [8 points: 10 mM; 3.33 mM; 1.11 mM; 0.37 mM; 0.12 mM; 0.04 mM; 0.0137 mM; 0.0045 mM, 0.0015 mM] • prepare […] concentrated solution of each compound concentration (top concentration 300 μM, 3% DMSO) in assay buffer • [concentrations: 300 μM; 100 μM; 33.3 μM; 11.1 μM; 3.70 μM; 1.23 μM; 0.41 μM; 0.137 μM] • prepare substrate (10 mM) at concentration of 1 mM in assay buffer • assay mix: 4 μl compound/well of each concentration+24 μl assaybuffer/well+8 μl KMO mouse enzyme+4 μl 1 mM substrate (final concentration=100 μM) • [final compound top concentration: 30 μM; 0.3% DMSO] • [final compound bottom concentration: 0.0137 μM; 0.3% DMSO] • positive control: 4 μl […] FCE28833 in assay buffer, 0.5% DMSO [final assay concentration=50 μM]+24 μl assaybuffer/well+8 μl KMO mouse enzyme+4 μl 1 mM substrate[final concentration=100 μM] • negative control: 28 μl assay buffer/well+8 μl KMO mouse enzyme+4 μl 1 mM substrate [final concentration=100 μM] • incubate 40 min at RT • add 40 μl/well 10% trichloro acetic acid in water to stop the assay and precipitate protein • centrifuge plate for 3 min at 4000 rpm • product detection by LC/MS (injection of 20 μl/well, 2 fold overfill of the 10 μl sample loop) Data Analysis:
IC50's are calculated using automated fitting algorithm (A+ Analysis).
Using the assay protocols substantially similar to those of Biology Example 3, the following compounds were tested.

[1] = compound at 30 μM, Biology Example 4 table, read-out: Percent Inhibition at 30 μM
[2] = compound at 30 μM, tables of Methods 1-6, read-out: % Inhibition at 30 μM

Row | Structure (SMILES) | inhibition at 30 µM [1] [%] | inhibition at 30 µM [2] [%] | inhibition at 10 µM (Biology Example 4 table, read-out: Percent Inhibition (at 10 uM)) [%] | inhibition at 10 µM (table of Method 2, read-out: % Inhibition (at 10 uM)) [%] | % Inhibition at 30 μM (compound at 30 μM, tables of Methods 1-6, 30 µM) [%]
1 | O=C(O)[C@H]1C[C@@H]1C(=O)c1cc(Cl)c2occc2c1 [Example 1, Method 4, (1S,2S)-2-(7-Chloro-1-benzofuran-5-carbonyl)cyclopropane-1-carboxylic acid] | 100 | 100 | – | – | –
2 | Cc1cc2cc(C(=O)[C@H]3C[C@@H]3C(=O)O)cc(Cl)c2o1 [Example 1, Method 6, (1S,2S)-2-(7-chloro-2-methyl-1-benzofuran-5-carbonyl)cyclopropane-1-carboxylic acid] | – | 102 | – | – | –
3 | O=C(O)[C@H]1C[C@@H]1C(=O)c1nc2ccccc2s1 [Example 2, Method 2, (1S,2S)-2-[(1,3-Benzothiazol-2-yl)carbonyl]cyclopropane-1-carboxylic acid] | 91.8 | 91.8 | – | – | –
4 | O=C(O)[C@H]1C[C@@H]1C(=O)c1cc(Cl)c2nccnc2c1 [Example 2, Method 3, (1S,2S)-2-(8-Chloroquinoxaline-6-carbonyl)cyclopropane-1-carboxylic acid] | 101 | 101 | – | – | –
5 | O=C(O)[C@H]1C[C@@H]1C(=O)c1cc(Cl)c2ncccc2c1 [Example 3, Method 3, (1S,2S)-2-(8-Chloroquinoline-6-carbonyl)cyclopropane-1-carboxylic acid] | 100 | 100 | – | – | –

Continued, values first:

Row | inhibition at 30 µM [1] [%] | inhibition at 30 µM [2] [%] | inhibition at 10 µM (Biology Example 4 table, read-out: Percent Inhibition (at 10 uM)) [%] | inhibition at 10 µM (table of Method 2, read-out: % Inhibition (at 10 uM)) [%] | % Inhibition at 30 μM (compound at 30 μM, tables of Methods 1-6, 30 µM) [%] | Structure (SMILES)
6 | 101 | 101 | – | – | – | O=C(O)[C@H]1C[C@@H]1C(=O)c1ccc(Cl)s1 [Example 1, Method 1, (1S,2S)-2-[(5-Chlorothiophen-2-yl)carbonyl]cyclopropane-1-carboxylic acid]
7 | – | – | 28.7 | 28.7 | – | O=C(O)[C@H]1C[C@@H]1C(=O)c1nccs1 [Example 1, Method 2, (1S,2S)-2-[(1,3-Thiazol-2-yl)carbonyl]cyclopropane-1-carboxylic acid]
8 | 74.5 | – | – | – | 98.3 | Cc1nc2ccc(C(=O)[C@H]3C[C@@H]3C(=O)O)cc2s1 [Example 1, Method 3, (1S,2S)-2-(2-Methyl-1,3-benzothiazole-6-carbonyl)cyclopropane-1-carboxylic acid]
9 | 83.2 | 83.2 | – | – | – | O=C(O)[C@H]1C[C@@H]1C(=O)c1ccsc1 [Example 2, Method 1, (1S,2S)-2-[(Thiophen-3-yl)carbonyl]cyclopropane-1-carboxylic acid]
10 | 80.3 | 80.3 | – | – | – | O=C(O)[C@H]1C[C@@H]1C(=O)c1cccs1 [Example 3, Method 1, (1S,2S)-2-[(Thiophen-2-yl)carbonyl]cyclopropane-1-carboxylic acid]
11 | 45.6 | 45.6 | – | – | – | O=C(O)[C@H]1C[C@@H]1C(=O)c1ccccn1 [Example 3, Method 2, (1S,2S)-2-[(Pyridin-2-yl)carbonyl]cyclopropane-1-carboxylic acid]
